Among the targets are CaV3.3 (α1I) (Homo sapiens, UniProt Q9P0X4); CaV3.1 (α1G) (Homo sapiens, UniProt O43497); CaV3.2 (α1H) (Homo sapiens, UniProt O95180).
Holding throughout (test): whole-cell patch clamp in HEK-293
Common to all, as to type: cell-based
In general terms: Patch clamp records ionic current or voltage across a cell membrane.

The values that follow come from paper PMC4146346 (Journal of cellular physiology, 2012).

By Kd is commonly meant a measure of binding affinity in units of concentration. The low end stands for higher affinity, the high end for lower affinity.

The structures appear in SMILES notation.

CaV3.3 (α1I), sequence (Q9P0X4 whole entry): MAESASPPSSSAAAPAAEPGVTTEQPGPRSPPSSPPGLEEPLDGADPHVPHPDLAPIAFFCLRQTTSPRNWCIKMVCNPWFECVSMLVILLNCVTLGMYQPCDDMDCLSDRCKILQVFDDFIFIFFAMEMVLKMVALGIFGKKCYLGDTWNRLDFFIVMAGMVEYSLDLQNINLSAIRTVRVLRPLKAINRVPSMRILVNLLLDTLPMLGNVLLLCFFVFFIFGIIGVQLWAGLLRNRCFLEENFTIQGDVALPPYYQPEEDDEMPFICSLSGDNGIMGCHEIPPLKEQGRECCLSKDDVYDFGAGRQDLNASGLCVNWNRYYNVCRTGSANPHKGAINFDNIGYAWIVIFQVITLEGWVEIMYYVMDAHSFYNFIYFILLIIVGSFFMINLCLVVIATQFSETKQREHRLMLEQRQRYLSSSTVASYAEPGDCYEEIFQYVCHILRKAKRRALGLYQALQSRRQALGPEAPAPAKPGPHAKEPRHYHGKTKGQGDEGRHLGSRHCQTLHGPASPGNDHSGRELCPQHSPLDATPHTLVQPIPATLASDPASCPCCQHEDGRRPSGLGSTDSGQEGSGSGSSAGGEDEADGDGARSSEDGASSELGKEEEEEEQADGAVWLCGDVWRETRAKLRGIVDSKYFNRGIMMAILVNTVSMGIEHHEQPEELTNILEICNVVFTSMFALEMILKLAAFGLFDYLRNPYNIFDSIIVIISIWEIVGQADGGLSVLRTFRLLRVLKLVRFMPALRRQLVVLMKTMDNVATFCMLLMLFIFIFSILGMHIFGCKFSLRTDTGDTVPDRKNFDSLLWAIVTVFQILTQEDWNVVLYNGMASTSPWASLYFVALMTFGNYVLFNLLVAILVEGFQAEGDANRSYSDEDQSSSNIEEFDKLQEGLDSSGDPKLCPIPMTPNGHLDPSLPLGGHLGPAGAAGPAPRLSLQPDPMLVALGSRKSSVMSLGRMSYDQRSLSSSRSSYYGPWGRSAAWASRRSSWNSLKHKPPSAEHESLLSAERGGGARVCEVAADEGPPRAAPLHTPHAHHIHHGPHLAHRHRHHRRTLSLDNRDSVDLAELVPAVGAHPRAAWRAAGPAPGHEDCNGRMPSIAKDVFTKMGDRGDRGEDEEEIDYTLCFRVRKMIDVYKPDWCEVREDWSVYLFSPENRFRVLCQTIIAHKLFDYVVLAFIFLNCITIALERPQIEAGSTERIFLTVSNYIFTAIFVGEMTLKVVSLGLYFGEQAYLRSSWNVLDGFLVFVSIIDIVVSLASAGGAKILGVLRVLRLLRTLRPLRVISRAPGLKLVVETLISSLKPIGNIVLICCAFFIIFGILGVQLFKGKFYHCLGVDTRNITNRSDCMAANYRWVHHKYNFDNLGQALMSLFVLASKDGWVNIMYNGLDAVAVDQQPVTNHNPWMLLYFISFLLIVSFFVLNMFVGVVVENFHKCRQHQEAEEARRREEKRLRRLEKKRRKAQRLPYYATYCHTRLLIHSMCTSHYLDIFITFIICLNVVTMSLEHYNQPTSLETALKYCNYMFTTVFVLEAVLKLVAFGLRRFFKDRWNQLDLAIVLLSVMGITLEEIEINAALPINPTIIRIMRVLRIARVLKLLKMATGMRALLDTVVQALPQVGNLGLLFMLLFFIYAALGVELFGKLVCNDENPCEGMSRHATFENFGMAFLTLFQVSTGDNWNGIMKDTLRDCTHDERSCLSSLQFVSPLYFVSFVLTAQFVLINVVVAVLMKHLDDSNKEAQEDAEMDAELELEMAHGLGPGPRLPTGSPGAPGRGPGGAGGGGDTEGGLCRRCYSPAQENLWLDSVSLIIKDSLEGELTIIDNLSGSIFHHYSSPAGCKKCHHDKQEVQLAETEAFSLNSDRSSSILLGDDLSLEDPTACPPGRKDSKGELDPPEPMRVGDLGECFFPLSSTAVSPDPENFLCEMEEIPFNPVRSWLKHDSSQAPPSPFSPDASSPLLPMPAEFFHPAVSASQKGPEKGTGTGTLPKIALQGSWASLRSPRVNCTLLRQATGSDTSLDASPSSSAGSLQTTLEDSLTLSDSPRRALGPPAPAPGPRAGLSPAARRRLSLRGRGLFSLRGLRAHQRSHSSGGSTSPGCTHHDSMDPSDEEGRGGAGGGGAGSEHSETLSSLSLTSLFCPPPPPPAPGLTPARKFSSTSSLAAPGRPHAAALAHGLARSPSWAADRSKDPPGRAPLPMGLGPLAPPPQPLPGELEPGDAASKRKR
CaV3.2 (α1H), sequence (O95180 whole entry): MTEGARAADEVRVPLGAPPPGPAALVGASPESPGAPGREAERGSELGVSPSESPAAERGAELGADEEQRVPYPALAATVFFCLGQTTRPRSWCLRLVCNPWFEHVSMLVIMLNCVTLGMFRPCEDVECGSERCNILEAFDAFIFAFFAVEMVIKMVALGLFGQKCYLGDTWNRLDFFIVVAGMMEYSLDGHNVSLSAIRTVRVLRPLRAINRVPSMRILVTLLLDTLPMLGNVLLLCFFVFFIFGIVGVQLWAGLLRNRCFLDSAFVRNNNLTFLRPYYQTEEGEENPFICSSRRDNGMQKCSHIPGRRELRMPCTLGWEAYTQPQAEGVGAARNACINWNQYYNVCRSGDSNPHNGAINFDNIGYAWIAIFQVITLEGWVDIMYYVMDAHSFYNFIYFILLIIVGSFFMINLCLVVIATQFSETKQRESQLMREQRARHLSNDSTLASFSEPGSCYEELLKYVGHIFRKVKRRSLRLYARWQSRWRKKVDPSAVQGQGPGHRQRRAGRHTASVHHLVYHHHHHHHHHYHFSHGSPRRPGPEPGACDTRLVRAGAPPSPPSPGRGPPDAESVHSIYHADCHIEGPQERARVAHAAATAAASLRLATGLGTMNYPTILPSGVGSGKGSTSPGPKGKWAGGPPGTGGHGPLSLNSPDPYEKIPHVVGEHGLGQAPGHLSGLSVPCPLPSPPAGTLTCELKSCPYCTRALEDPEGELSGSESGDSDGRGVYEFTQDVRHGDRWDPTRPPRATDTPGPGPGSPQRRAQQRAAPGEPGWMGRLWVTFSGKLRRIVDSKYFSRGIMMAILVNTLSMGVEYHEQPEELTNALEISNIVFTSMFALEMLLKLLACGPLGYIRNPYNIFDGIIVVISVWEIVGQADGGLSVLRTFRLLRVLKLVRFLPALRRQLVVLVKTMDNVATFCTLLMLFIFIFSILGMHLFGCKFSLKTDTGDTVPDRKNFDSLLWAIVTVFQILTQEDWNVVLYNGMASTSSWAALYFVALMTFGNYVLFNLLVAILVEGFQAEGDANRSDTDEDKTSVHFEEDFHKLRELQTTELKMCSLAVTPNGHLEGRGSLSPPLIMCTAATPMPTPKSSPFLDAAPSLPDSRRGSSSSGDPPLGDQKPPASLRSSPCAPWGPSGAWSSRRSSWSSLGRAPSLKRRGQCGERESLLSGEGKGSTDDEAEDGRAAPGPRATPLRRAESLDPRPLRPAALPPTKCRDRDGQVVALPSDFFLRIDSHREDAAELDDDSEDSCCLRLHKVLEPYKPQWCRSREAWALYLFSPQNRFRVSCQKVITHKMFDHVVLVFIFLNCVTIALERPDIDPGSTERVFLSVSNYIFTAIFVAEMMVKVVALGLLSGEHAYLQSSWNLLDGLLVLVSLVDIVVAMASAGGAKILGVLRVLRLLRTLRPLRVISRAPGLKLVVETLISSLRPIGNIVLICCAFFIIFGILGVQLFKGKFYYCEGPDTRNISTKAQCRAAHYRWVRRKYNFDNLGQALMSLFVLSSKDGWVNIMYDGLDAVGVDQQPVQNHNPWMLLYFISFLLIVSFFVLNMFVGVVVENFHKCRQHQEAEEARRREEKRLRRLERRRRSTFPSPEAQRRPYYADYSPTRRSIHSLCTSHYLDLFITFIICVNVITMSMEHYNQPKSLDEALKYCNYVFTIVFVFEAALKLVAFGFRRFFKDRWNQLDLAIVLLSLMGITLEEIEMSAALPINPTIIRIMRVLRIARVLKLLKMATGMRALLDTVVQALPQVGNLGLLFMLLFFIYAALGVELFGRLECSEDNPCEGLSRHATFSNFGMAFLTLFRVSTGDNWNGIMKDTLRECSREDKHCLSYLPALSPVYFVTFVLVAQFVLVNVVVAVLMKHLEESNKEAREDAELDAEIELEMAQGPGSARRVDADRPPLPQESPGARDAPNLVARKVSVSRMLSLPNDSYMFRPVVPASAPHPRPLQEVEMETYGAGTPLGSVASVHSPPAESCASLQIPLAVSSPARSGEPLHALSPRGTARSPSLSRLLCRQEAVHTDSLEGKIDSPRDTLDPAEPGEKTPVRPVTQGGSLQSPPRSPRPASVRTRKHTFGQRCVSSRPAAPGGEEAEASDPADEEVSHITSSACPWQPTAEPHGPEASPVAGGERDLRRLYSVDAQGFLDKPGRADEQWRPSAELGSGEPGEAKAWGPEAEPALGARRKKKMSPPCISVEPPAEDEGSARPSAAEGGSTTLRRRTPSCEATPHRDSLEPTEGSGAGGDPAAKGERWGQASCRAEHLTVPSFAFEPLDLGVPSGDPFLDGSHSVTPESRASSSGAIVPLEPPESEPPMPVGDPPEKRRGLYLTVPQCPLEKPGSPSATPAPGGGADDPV

In the case of `O=C(O)c1cccnc1Nc1cccc(C(F)(F)F)c1` [NA, 2-{[3-(trifluoromethyl)phenyl]amino}-pyridine-3-carboxylic acid], the figures for the Kd on CaV3.3 (α1I), on CaV3.1 (α1G) and on CaV3.2 (α1H) were 137 µM, 78.4 µM and 192 µM, respectively.
